Laboratory results reported in US20070066629A1.
Where two headings read alike, the source gives them in different places.

System: Corticium solani (syn. Rhizoctonia sasakii)
Details: individual active compound, rice, evaluated after 11 days, untreated control 81% infection
Experimental: 1% by weight of the emulsifier Uniperol® EL (wetting agent having emulsifying and dispersing action based on ethoxylated alkylphenols) was added to this solution, and the solution was diluted with water to the desired concentration.
The next day, oat grains infected with Corticium solani were placed into the pots (in each case 5 grains per pot). The plants were then placed in a chamber at 26° C. and maximum atmospheric humidity.
Evaluation is carried out by determining the infected leaf areas in percent. These percentages were converted into efficacies.
The efficacy (E) is calculated as follows using Abbot's formula: E=(1−α/β)*100 α corresponds to the fungicidal infection of the treated plants in % and β corresponds to the fungicidal infection of the untreated (control) plants in %
An efficacy of 0 means that the infection level of the treated plants corresponds to that of the untreated control plants; an efficacy of 100 means that the treated plants were not infected.

| Compound | Efficacy in % of the untreated control (1 ppm in the spray liquor) | Efficacy in % of the untreated control (4 ppm in the spray liquor) |
| --- | --- | --- |
| CC1CCN(c2c(-c3c(F)cccc3Cl)c(Cl)nc3ncnn23)CC1 [A] | 26% |  |
| CO/C=C(/C(=O)OC)c1ccccc1Oc1cc(Oc2ccccc2C#N)ncn1 [I (azoxystrobin), azoxystrobin] | 1% | 26% |
| CC1CCN(c2c(-c3c(F)cc(F)cc3F)c(Cl)nc3ncnn23)CC1 [II, 5-chloro-7-(4-methylpiperidin-1-yl)-6-(2,4,6-trifluorophenyl)-[1,2,4]triazolo[1,5-a]pyrimidine] | 26% |  |
